The subject of one assay is human breast cancer cell line T-47D. As to the kind of experiment: Caspase cascade activation (DEVD-R110 fluorogenic substrate) in T-47D cells. Type of assay: cell-based. Conditions: Homo sapiens, T47D, 24 h, T47D cells, 24 h; read-out: Caspase activation Potency EC50 T47D (24 h). How it is done: (§1) Human breast cancer cell line T-47D, human lung cancer cell line H1299, human hepatocellular carcinoma cell line SNU398, human colon carcinoma cell line HCT116 were grown according to media component mixtures designated by American Type Culture Collection+10% FCS (Invitrogen Corporation), in a 5% CO2-95% humidity incubator at 37° C. T-47D and H1299 cells were maintained at a cell density between 50 and 80% confluency at a cell density of 0.1 to 0.6×10^6 cells/mL. Cells were harvested at 600×g and resuspended at 0.65×10^6 cells/mL into appropriate media+10% FCS. An aliquot of 22.5 μL of cells was added to a well of a 384-well microtiter plate containing 2.5 μL of a 10% DMSO in RPMI-1640 media solution containing 0.16 to 100 μM of N-(2,5-dimethoxyphenyl)-2-methylthieno[3,2-d]pyrimidin-4-amine or other test compound (0.016 to 10 μM final). An aliquot of 22.5 μL of cells was added to a well of a 384-well microtiter plate containing 2.5 μL of a 10% DMSO in RPMI-1640 media solution without test compound as the control sample. The samples were mixed by agitation and then incubated at 37° C. for 24 h or 48 h in a 5% CO2-95% humidity incubator. After incubation, the samples were removed from the incubator and 25 μL of a solution containing 14 μM of N-(Ac-DEVD)-N′-ethoxycarbonyl-R110 (SEQ ID NO.:1) fluorogenic substrate (Cytovia, Inc.; WO99/18856), 20% sucrose (Sigma), 20 mM DTT (Sigma), 200 mM NaCl (Sigma), 40 mM Na PIPES buffer pH 7.2 (Sigma), and 500 μg/mL lysolecithin (Calbiochem) was added. The samples were mixed by agitation and incubated at room temperature. Using a fluorescent plate reader (Model SPECTRAfluor Plus, Tecan), an initial reading (T=0) was made approximately 1-2 min after addition of the substrate solution, employing excitation at 485 nm and emission at 530 nm, to determine the background fluorescence of the control sample. After the 3 h incubation, the samples were read for fluorescence as above (T=3 h).
(§2) The Relative Fluorescence Unit values (RFU) were used to calculate the sample readings as follows: RFU(T=3h)−Control RFU(T=O)=Net RFU(T=3h)
(§3) The activity of caspase cascade activation was determined by the ratio of the net RFU value for N-(2,5-dimethoxyphenyl)-2-methylthieno[3,2-d]pyrimidin-4-amine or other test compound to that of control samples. The EC50 (nM) was determined by a sigmoidal dose-response calculation (Prism 3.0, GraphPad Software Inc.).
Usually EC50 stands for the concentration needed to bring the measured effect to its halfway point. Regarding `COc1ccc(C)cc1Nc1ncnc2ccsc12` [Example 31, N-(2-Methoxy-5-methylphenyl)thieno[3,2-d]pyrimidin-4-amine], the EC50 turned out to be 0.417 µM.

In the case of `COc1ccc(OC)c(Nc2ncnc3cc(-c4ccccc4)sc23)c1` [Example 32, N-(2,5-Dimethoxyphenyl)-6-phenylthieno[3,2-d]pyrimidin-4-amine], the EC50 was 2.07 µM.

As to `COc1cc(O)cc(Nc2ncnc3ccsc23)c1` [Example 44, N-(3-Hydroxy-5-methoxyphenyl)thieno[3,2-d]pyrimidin-4-amine], the concentration for a half-maximal effect (EC50) came out at 1.1 µM.

As to `COC(=O)c1cc(Nc2ncnc3ccsc23)cc(C(=O)OC)c1` [Example 58, Dimethyl 5-(thieno[3,2-d]pyrimidin-4-ylamino)benzene-1,3-dioate], the half-maximal effective concentration (EC50) is over 10 µM.

On to `COc1cc(Nc2nc(C)nc3cc(Br)sc23)cc(OC)c1` [Example 52, N-(3,5-Dimethoxyphenyl)-6-bromo-2-methylthieno[3,2-d]pyrimidin-4-amine], for which the EC50 amounted to 0.032 µM.

With `COc1cc(Nc2nc(C)nc3sccc23)cc(OC)c1` [Example 55, N-(3,5-Dimethoxyphenyl)-2-methylthieno[2,3-d]pyrimidin-4-amine], the EC50 came to 0.112 µM.

Staying with this assay, now noted: Homo sapiens, T47D, 48 h, T-47D cells, 48 h; read-out: Caspase activation Potency EC50 T-47D (48 h).
With `COc1ccc(C)cc1Nc1ncnc2ccsc12` [Example 31, N-(2-Methoxy-5-methylphenyl)thieno[3,2-d]pyrimidin-4-amine], the EC50 turned out to be 0.519 µM.

As to `COc1ccc(OC)c(Nc2ncnc3cc(-c4ccccc4)sc23)c1` [Example 32, N-(2,5-Dimethoxyphenyl)-6-phenylthieno[3,2-d]pyrimidin-4-amine], the EC50 amounted to 4.01 µM.

As to `COc1cc(Nc2nc(C)nc3ccsc23)cc(-n2cnnn2)c1` [Example 65, N-(3-Methoxy-5-(1H-tetrazol-1-yl)phenyl)-2-methylthieno[3,2-d]pyrimidin-4-amine], the EC50 is 0.457 µM.

With `COc1cc(Nc2ncnc3ccsc23)cc(C(F)(F)F)c1` [Example 56, N-(5-Methoxy-3-trifluoromethylphenyl)thieno[3,2-d]pyrimidin-4-amine], the concentration for a half-maximal effect (EC50) was 1.84 µM.

With `COC(=O)c1cc(Nc2ncnc3ccsc23)cc(C(=O)OC)c1` [Example 58, Dimethyl 5-(thieno[3,2-d]pyrimidin-4-ylamino)benzene-1,3-dioate], the EC50 was 0.565 µM.

In the case of `COc1cc(Nc2ncnc3c(C)csc23)cc(OC)c1` [Example 46, N-(3,5-Dimethoxyphenyl)-7-methylthieno[3,2-d]pyrimidin-4-amine], the EC50 is 1.52 µM.

With `COc1cc(Nc2ncnc3cc(I)sc23)cc(OC)c1` [Example 53, N-(3,5-Dimethoxyphenyl)-6-iodothieno[3,2-d]pyrimidin-4-amine], the 50% effective concentration (EC50) was 0.723 µM.

As to `COc1cc(Nc2nc(C)nc3cc(Br)sc23)cc(OC)c1` [Example 52, N-(3,5-Dimethoxyphenyl)-6-bromo-2-methylthieno[3,2-d]pyrimidin-4-amine], the EC50 amounted to 0.033 µM.

Take `COc1cc(Nc2ncnc3ccsc23)cc([N+](=O)[O-])c1` [Example 59, N-(3-Methoxy-5-nitrophenyl)thieno[3,2-d]pyrimidin-4-amine]: the EC50 was over 10 µM.

On to `COc1c(Br)c(N)c(Br)c(Nc2ncnc3ccsc23)c1Br` [Example 73, N-(3-Amino-2,4,6-tribromo-5-methoxyphenyl)thieno[3,2-d]pyrimidin-4-amine], for which the EC50 came to 0.486 µM.

On to `COc1cc(Nc2nc(C)nc3sccc23)cc(OC)c1` [Example 55, N-(3,5-Dimethoxyphenyl)-2-methylthieno[2,3-d]pyrimidin-4-amine], for which the EC50 stood at 0.099 µM.

A further assay deals with human lung cancer cell line H1299. The assay is described as follows: Caspase cascade activation in H1299 cells. Type of assay: cell-based. As to conditions: NCI-H1299, 24 h, read-out: Caspase activation Potency EC50 H1299 (24 h). How it is done:
as §1, §2, §3
With `COc1ccc(C)cc1Nc1ncnc2ccsc12` [Example 31, N-(2-Methoxy-5-methylphenyl)thieno[3,2-d]pyrimidin-4-amine], the EC50 was over 10 µM.

On to `COc1ccc(OC)c(Nc2ncnc3cc(-c4ccccc4)sc23)c1` [Example 32, N-(2,5-Dimethoxyphenyl)-6-phenylthieno[3,2-d]pyrimidin-4-amine], for which the EC50 worked out at 1.42 µM.

As for `COc1cc(O)cc(Nc2ncnc3ccsc23)c1` [Example 44, N-(3-Hydroxy-5-methoxyphenyl)thieno[3,2-d]pyrimidin-4-amine], the EC50 worked out at 2.68 µM.

A further assay has as its system human hepatocellular carcinoma cell line SNU398. As to the kind of experiment: Caspase cascade activation in SNU398 cells. Type of assay: cell-based. Conditions: Homo sapiens, SNU-398, 48 h, read-out: Caspase activation Potency EC50 SNU398 (48 h). The method, then: as §1, §2, §3
Consider `COc1ccc(C)cc1Nc1ncnc2ccsc12` [Example 31, N-(2-Methoxy-5-methylphenyl)thieno[3,2-d]pyrimidin-4-amine], for which the EC50 is over 10 µM.

For the compound `COc1ccc(OC)c(Nc2ncnc3cc(-c4ccccc4)sc23)c1` [Example 32, N-(2,5-Dimethoxyphenyl)-6-phenylthieno[3,2-d]pyrimidin-4-amine], the EC50 was 1.6 µM.

Turning to `COc1cc(Nc2nc(C)nc3ccsc23)cc(-n2cnnn2)c1` [Example 65, N-(3-Methoxy-5-(1H-tetrazol-1-yl)phenyl)-2-methylthieno[3,2-d]pyrimidin-4-amine], the EC50 is 0.354 µM.

As to `COc1cc(Nc2ncnc3ccsc23)cc(C(F)(F)F)c1` [Example 56, N-(5-Methoxy-3-trifluoromethylphenyl)thieno[3,2-d]pyrimidin-4-amine], the EC50 turned out to be 1.03 µM.

Regarding `COC(=O)c1cc(Nc2ncnc3ccsc23)cc(C(=O)OC)c1` [Example 58, Dimethyl 5-(thieno[3,2-d]pyrimidin-4-ylamino)benzene-1,3-dioate], the EC50 was found to be 0.168 µM.

Consider `COc1cc(Nc2ncnc3c(C)csc23)cc(OC)c1` [Example 46, N-(3,5-Dimethoxyphenyl)-7-methylthieno[3,2-d]pyrimidin-4-amine], for which the 50% effective concentration (EC50) was over 10 µM.

Regarding `COc1cc(Nc2ncnc3cc(I)sc23)cc(OC)c1` [Example 53, N-(3,5-Dimethoxyphenyl)-6-iodothieno[3,2-d]pyrimidin-4-amine], the EC50 worked out at 0.868 µM.

For the compound `COc1cc(Nc2nc(C)nc3cc(Br)sc23)cc(OC)c1` [Example 52, N-(3,5-Dimethoxyphenyl)-6-bromo-2-methylthieno[3,2-d]pyrimidin-4-amine], the EC50 came out at 0.468 µM.

For `COc1cc(Nc2ncnc3ccsc23)cc([N+](=O)[O-])c1` [Example 59, N-(3-Methoxy-5-nitrophenyl)thieno[3,2-d]pyrimidin-4-amine], the EC50 was found to be 3.25 µM.

As for `COc1c(Br)c(N)c(Br)c(Nc2ncnc3ccsc23)c1Br` [Example 73, N-(3-Amino-2,4,6-tribromo-5-methoxyphenyl)thieno[3,2-d]pyrimidin-4-amine], the EC50 is 0.605 µM.

With `COc1cc(Nc2nc(C)nc3sccc23)cc(OC)c1` [Example 55, N-(3,5-Dimethoxyphenyl)-2-methylthieno[2,3-d]pyrimidin-4-amine], the EC50 is over 10 µM.

Another assay has as its system human colon carcinoma cell line HCT116. The assay is described as follows: Caspase cascade activation in HCT116 cells. The class given is cell-based. As to conditions: Homo sapiens, HCT-116, 48 h, read-out: Caspase activation Potency EC50 HCT116 (48 h). How it is done: as §1, §2, §3
With `COc1ccc(C)cc1Nc1ncnc2ccsc12` [Example 31, N-(2-Methoxy-5-methylphenyl)thieno[3,2-d]pyrimidin-4-amine], the EC50 is over 10 µM.

`COc1ccc(OC)c(Nc2ncnc3cc(-c4ccccc4)sc23)c1` [Example 32, N-(2,5-Dimethoxyphenyl)-6-phenylthieno[3,2-d]pyrimidin-4-amine]: the EC50 worked out at 4.25 µM.

For the compound `COc1cc(Nc2nc(C)nc3ccsc23)cc(-n2cnnn2)c1` [Example 65, N-(3-Methoxy-5-(1H-tetrazol-1-yl)phenyl)-2-methylthieno[3,2-d]pyrimidin-4-amine], the EC50 was found to be 0.62 µM.

Turning to `COc1cc(Nc2ncnc3ccsc23)cc(C(F)(F)F)c1` [Example 56, N-(5-Methoxy-3-trifluoromethylphenyl)thieno[3,2-d]pyrimidin-4-amine], the concentration giving a half-maximal response (EC50) was found to be 2.61 µM.

As for `COC(=O)c1cc(Nc2ncnc3ccsc23)cc(C(=O)OC)c1` [Example 58, Dimethyl 5-(thieno[3,2-d]pyrimidin-4-ylamino)benzene-1,3-dioate], the concentration for a half-maximal effect (EC50) was determined as 0.347 µM.

For `COc1cc(Nc2ncnc3c(C)csc23)cc(OC)c1` [Example 46, N-(3,5-Dimethoxyphenyl)-7-methylthieno[3,2-d]pyrimidin-4-amine], the concentration giving a half-maximal response (EC50) is over 10 µM.

For the compound `COc1cc(Nc2ncnc3cc(I)sc23)cc(OC)c1` [Example 53, N-(3,5-Dimethoxyphenyl)-6-iodothieno[3,2-d]pyrimidin-4-amine], the EC50 is 2.45 µM.

`COc1cc(Nc2nc(C)nc3cc(Br)sc23)cc(OC)c1` [Example 52, N-(3,5-Dimethoxyphenyl)-6-bromo-2-methylthieno[3,2-d]pyrimidin-4-amine]: the EC50 came to 0.082 µM.

With `COc1cc(Nc2ncnc3ccsc23)cc([N+](=O)[O-])c1` [Example 59, N-(3-Methoxy-5-nitrophenyl)thieno[3,2-d]pyrimidin-4-amine], the EC50 is over 10 µM.

Consider `COc1c(Br)c(N)c(Br)c(Nc2ncnc3ccsc23)c1Br` [Example 73, N-(3-Amino-2,4,6-tribromo-5-methoxyphenyl)thieno[3,2-d]pyrimidin-4-amine], for which the EC50 is 1.67 µM.

For `COc1cc(Nc2nc(C)nc3sccc23)cc(OC)c1` [Example 55, N-(3,5-Dimethoxyphenyl)-2-methylthieno[2,3-d]pyrimidin-4-amine], the EC50 is over 10 µM.
